Reference: paper PMC6720019 (Pharmaceutical Biology, 2019)

Key:
Type in all cases: in vitro ADME
Conditions in all cases: 100 μM KF, pooled HLMs
[1] = biological target: T1, CYP2A6 (Homo sapiens, UniProt P11509); assay: CYP2A6 inhibition in pooled human liver microsomes (coumarin 7-hydroxylation)
T1 construct: effects of KF on eight major CYP isoforms in human liver microsomes (HLMs); from tissue; host or cells: human liver microsomes
T1 sequence (P11509 1-494): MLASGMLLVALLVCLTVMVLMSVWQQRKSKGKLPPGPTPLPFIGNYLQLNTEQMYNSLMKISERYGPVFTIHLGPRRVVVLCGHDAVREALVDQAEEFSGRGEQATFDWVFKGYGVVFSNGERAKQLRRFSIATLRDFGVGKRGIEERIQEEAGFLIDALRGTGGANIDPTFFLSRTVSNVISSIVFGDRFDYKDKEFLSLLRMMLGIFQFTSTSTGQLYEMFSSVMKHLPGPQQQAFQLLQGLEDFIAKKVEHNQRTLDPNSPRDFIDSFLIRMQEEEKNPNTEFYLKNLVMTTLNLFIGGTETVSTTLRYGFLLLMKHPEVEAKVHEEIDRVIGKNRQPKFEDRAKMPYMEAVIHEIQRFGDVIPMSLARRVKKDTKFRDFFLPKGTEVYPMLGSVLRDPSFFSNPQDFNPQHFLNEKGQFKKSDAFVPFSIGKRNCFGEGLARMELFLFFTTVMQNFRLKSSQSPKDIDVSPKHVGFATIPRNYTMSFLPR
Description: (§1) All incubations were performed in triplicate, and the mean values were utilized. The typical incubation systems contained 100 mM potassium phosphate buffer (pH 7.4), NADPH generating system (1 mM NADP^+, 10 mM glucose-6-phosphate, 1 U/mL of glucose-6-phosphate dehydrogenase, and 4 mM MgCl2), the appropriate concentration of HLM, a corresponding probe substrate and KF (or positive inhibitor for different probe reactions) in a final volume of 200 μL.
(§2) The concentration of KF was 100 μM according literatures (Lang et al. [2016]; Liu et al. [2017]; Zhang et al. [2019]), and the positive inhibitor concentrations were as follows: 10 μM furafylline for CYP1A2, 1 μM ketoconazole for CYP3A4, 10 μM tranylcypromine for CYP2A6, 50 μM clomethiazole for CYP2E1, 10 μM quinidine for CYP2D6, 10 μM sulfaphenazole for CYP2C9, 50 μM tranylcypromine for CYP2C19, 5 μM montelukast for CYP2C8. Probe substrates, positive inhibitors (except for dextromethorphan and quinidine which were dissolved in water) and KF were dissolved in methanol, with a final concentration of 1% (v/v), and 1% neat methanol was added to the incubations without inhibitor. […] The instrument used in this study were Agilent 1260 series instrument with DAD and FLD detector, and the quantitative assay for the corresponding metabolites was performed as previously reported (Lang et al. [2016]; Zhang et al. 2016). […]

[2] = biological target: T2, CYP2E1 (Homo sapiens, UniProt P05181); assay: CYP2E1 inhibition in pooled human liver microsomes (chlorzoxazone 6-hydroxylation)
T2 construct: effects of KF on eight major CYP isoforms in human liver microsomes (HLMs); from tissue; host or cells: human liver microsomes
Description: as §1, §2

[3] = biological target: T3, CYP2D6 (Homo sapiens, UniProt P10635); assay: CYP2D6 inhibition in pooled human liver microsomes (dextromethorphan O-demethylation)
T3 construct: effects of KF on eight major CYP isoforms in human liver microsomes (HLMs); from tissue; host or cells: human liver microsomes
Description: as §1, §2

[4] = biological target: T4, CYP2C19 (Homo sapiens, UniProt P33261); assay: CYP2C19 inhibition in pooled human liver microsomes (S-mephenytoin 4-hydroxylation)
T4 construct: effects of KF on eight major CYP isoforms in human liver microsomes (HLMs); from tissue; host or cells: human liver microsomes
Description: as §1, §2

[5] = biological target: T5, CYP2C8 (Homo sapiens, UniProt P10632); assay: CYP2C8 inhibition in pooled human liver microsomes (paclitaxel 6α-hydroxylation)
T5 construct: effects of KF on eight major CYP isoforms in human liver microsomes (HLMs); from tissue; host or cells: human liver microsomes
T5 sequence (P10632 1-490): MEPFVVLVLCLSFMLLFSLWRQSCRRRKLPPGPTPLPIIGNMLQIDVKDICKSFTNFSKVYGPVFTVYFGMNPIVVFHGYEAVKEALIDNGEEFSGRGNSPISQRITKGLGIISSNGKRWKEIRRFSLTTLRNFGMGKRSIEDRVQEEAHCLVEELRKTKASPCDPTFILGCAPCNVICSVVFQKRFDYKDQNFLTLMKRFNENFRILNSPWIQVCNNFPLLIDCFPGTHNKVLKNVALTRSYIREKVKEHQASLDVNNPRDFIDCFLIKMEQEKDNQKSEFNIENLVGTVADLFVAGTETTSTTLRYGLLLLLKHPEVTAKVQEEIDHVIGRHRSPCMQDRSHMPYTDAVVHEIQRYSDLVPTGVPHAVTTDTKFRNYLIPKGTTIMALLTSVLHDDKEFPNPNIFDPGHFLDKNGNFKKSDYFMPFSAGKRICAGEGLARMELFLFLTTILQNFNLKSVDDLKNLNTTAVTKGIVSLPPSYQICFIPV
Description: as §1, §2

T3 sequence (P10635 whole entry, canonical isoform): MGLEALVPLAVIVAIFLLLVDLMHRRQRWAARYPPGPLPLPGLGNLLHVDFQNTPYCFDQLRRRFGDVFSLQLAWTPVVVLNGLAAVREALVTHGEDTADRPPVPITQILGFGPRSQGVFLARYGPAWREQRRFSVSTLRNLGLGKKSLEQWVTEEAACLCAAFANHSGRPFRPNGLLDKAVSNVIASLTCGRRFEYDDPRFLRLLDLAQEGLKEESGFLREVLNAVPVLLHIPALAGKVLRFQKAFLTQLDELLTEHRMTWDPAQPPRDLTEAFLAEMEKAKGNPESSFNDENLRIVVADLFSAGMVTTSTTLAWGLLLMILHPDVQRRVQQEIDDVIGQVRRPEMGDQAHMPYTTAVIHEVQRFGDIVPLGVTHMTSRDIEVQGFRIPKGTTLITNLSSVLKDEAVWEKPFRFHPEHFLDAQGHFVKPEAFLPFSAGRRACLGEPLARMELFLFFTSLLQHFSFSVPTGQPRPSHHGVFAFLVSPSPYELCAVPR
T4 sequence (P33261 whole entry, canonical isoform): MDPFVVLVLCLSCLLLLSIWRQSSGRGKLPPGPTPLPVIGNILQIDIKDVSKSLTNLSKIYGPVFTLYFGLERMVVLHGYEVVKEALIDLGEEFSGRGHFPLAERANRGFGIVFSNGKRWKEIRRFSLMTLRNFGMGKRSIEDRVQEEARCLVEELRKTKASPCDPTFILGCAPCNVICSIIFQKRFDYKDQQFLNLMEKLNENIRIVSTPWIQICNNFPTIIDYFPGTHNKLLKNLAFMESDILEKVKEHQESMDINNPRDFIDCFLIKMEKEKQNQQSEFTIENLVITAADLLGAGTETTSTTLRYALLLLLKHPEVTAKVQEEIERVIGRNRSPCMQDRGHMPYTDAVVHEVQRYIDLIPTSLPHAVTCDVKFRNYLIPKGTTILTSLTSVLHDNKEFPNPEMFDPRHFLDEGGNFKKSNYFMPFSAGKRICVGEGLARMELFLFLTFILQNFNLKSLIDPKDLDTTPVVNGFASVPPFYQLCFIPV
T2 sequence (P05181 whole entry, canonical isoform): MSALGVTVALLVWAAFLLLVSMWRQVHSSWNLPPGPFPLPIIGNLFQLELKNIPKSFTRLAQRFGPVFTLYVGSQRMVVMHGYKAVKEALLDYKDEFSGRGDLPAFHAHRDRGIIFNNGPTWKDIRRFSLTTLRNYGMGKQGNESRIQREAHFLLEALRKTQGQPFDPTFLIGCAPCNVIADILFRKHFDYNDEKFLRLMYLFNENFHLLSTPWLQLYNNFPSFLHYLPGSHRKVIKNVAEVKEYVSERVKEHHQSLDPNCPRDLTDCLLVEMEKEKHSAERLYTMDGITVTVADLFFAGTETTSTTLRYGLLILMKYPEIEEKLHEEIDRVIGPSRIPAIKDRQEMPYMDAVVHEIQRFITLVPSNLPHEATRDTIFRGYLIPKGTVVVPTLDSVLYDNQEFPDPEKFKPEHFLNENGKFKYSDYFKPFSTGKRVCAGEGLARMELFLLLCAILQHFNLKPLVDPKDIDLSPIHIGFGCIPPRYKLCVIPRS

- Inhibition of CYP2A6 activity [1]: did not inhibit
- Inhibition of CYP2E1 activity [2]: did not inhibit
- Inhibition of CYP2D6 activity [3]: did not inhibit
- Inhibition of CYP2C19 activity [4]: did not inhibit
- Inhibition of CYP2C8 activity [5]: did not inhibit
Compound: C[C@@H]1O[C@@H](Oc2cc(O)c3c(=O)c(O[C@@H]4O[C@@H](C)[C@H](O)[C@@H](O)[C@H]4O)c(-c4ccc(O)cc4)oc3c2)[C@H](O)[C@H](O)[C@H]1O [KF, Kaempferitrin]
